Measurements as given in US7741327B2 (Hoffmann-La Roche Inc., priority 2008, dated 2010).

Biological target: T1, Recombinant human liver GK1 (GST-GK) (Homo sapiens, UniProt P35557)
T1 construct: made in house; host or cells: E. coli
T1 sequence (P35557 1-466 isoform P35557-2): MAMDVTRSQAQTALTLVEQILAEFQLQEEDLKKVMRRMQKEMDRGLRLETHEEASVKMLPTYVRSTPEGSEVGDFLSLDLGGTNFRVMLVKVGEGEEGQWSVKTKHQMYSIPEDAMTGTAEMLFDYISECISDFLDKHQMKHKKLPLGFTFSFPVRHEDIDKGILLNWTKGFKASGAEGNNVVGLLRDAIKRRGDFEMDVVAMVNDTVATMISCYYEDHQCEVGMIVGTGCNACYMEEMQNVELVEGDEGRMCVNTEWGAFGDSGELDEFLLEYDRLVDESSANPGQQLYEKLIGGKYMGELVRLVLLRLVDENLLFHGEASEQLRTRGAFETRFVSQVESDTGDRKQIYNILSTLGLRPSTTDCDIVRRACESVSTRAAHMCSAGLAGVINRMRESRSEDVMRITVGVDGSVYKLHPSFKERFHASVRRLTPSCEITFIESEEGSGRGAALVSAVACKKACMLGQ
Assay: In vitro glucokinase activity (G6PDH-coupled NADH assay)
Type: biochemical
Conditions: 30° C., 5 mM D-glucose, 10% DMSO
Outline: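 GST-tagged human liver GK1 from E. coli, assayed at 30° C in 25 mM Hepes pH 7.1 with 5 mM D-glucose, 1 mM ATP, 1.8 mM NAD and G6PDH coupling, 10% DMSO final; reaction started with enzyme after 10 min preincubation. NADH formation followed at OD340; SC1.5 is activator concentration giving 50% increase over DMSO control rate.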

| SC1.5 (concentration of activator that produced a 50% increase in the activity of GK) [µM] | Structure (SMILES) |
| --- | --- |
| 0.048 | CC[C@@H](C)C[C@@H](C(=O)Nc1ccn(C[C@@H](O)CO)n1)N1CC(Oc2ccccc2Cl)=CC1=O [Example 255, (2S,4R)-2-[4-(2-Chloro-phenoxy)-2-oxo-2,5-dihydro-pyrrol-1-yl]-4-methyl-hexanoic acid [1-((R)-2,3-dihydroxy-propyl)-1H-pyrazol-3-yl]-amide] |
| 0.014 | CC(C)(O)Cn1ccc(NC(=O)[C@H](C[C@H]2C[C@H](C)C2)N2CC(Oc3ccccc3Cl)=CC2=O)n1 (single isomer, unassigned) [Example 215] |
| 0.056 | CCCc1ccccc1OC1=CC(=O)N([C@@H](CC2CCCCC2)C(=O)Nc2ccn(CC(C)(C)O)n2)C1 [Example 198, (S)-3-cyclohexyl-N-[1-(2-hydroxy-2-methyl-propyl)-1H-pyrazol-3-yl]-2-[2-oxo-4-(2-propyl-phenoxy)-2,5-dihydro-pyrrol-1-yl]-propionamide] |
| 0.365 | CC(C)(O)Cn1ccc(NC(=O)C(CC2CC3CCC2C3)N2CC(Oc3c(F)cccc3F)=CC2=O)n1 (centres unmarked) [Example 228, 3-Bicyclo[2.2.1]hept-2-yl-2-[4-(2,6-difluoro-phenoxy)-2-oxo-2,5-dihydro-pyrrol-1-yl]-N-[1-(2-hydroxy-2-methyl-propyl)-1H-pyrazol-3-yl]-propionamide] |
| 1.969 | CC(C)C[C@@H](C(=O)Nc1ccn(C[C@@H]2COC(C)(C)O2)n1)N1CC(Oc2cccc(CC(C)(C)O)c2)=CC1=O [Example 237, (S)-2-{4-[3-(2-Hydroxy-2-methyl-propyl)-phenoxy]-2-oxo-2,5-dihydro-pyrrol-1-yl}-4-methyl-pentanoic acid [1-((R)-2,2-dimethyl-[1,3]dioxolan-4-ylmethyl)-1H-pyrazol-3-yl]-amide] |
| 0.006 | CCOc1ccc(F)c(OC2=CC(=O)N([C@@H](CC3CCOCC3)C(=O)Nc3ccn(CC(C)(C)O)n3)C2)c1F (single isomer, unassigned) [Example 257] |
| 0.007 | CSc1ccccc1OC1=CC(=O)N([C@@H](CC2CCCCC2)C(=O)Nc2ccn(CC(C)(C)O)n2)C1 [Example 196, (S)-3-cyclohexyl-N-[1-(2-hydroxy-2-methyl-propyl)-1H-pyrazol-3-yl]-2-[4-(2-methylsulfanyl-phenoxy)-2-oxo-2,5-dihydro-pyrrol-1-yl]-propionamide] |
| 1.538 | CC1(C)OC[C@@H](Cn2ccc(NC(=O)[C@H](Cc3ccc(F)cc3)N3CC(Oc4ccccc4Cl)=CC3=O)n2)O1 [Example 186, (S)-2-[4-(2-chloro-phenoxy)-2-oxo-2,5-dihydro-pyrrol-1-yl]-N-[1-((R)-2,2-dimethyl-[1,3]dioxolan-4-yl-methyl)-1H-pyrazol-3-yl]-3-(4-fluoro-phenyl)-propionamide] |
| 2.458 | CC(C)C[C@@H](C(=O)Nc1ccn(CC(C)(C)O)n1)N1CC(Oc2cccc(O)c2N)=CC1=O [Example 241, (S)-2-[4-(2-Amino-3-hydroxy-phenoxy)-2-oxo-2,5-dihydro-pyrrol-1-yl]-4-methyl-pentanoic acid [1-(2-hydroxy-2-methyl-propyl)-1H-pyrazol-3-yl]-amide] |
| 0.295 | COc1ccccc1OC1=CC(=O)N([C@@H](CC2CCCO2)C(=O)Nc2ccn(CC(C)(C)O)n2)C1 (stereo partly drawn) [Example 179, (S)-N-[1-(2-hydroxy-2-methyl-propyl)-1H-pyrazol-3-yl]-2-[4-(2-methoxy-phenoxy)-2-oxo-2,5-dihydro-pyrrol-1-yl]-3-(tetrahydro-furan-2-yl)-propionamide] |

Continued, molecule first:

| Structure (SMILES) | SC1.5 (concentration of activator that produced a 50% increase in the activity of GK) [µM] |
| --- | --- |
| CC(C)C[C@@H](C(=O)Nc1ccn(C[C@@H]2COC(C)(C)O2)n1)N1CC(Oc2cccc(N3CCCC3)c2F)=CC1=O [Example 141, (S)-2-[4-(2-Fluoro-3-pyrrolidin-1-yl-phenoxy)-2-oxo-2,5-dihydro-pyrrol-1-yl]-4-methyl-pentanoic acid [1-((R)-2,2-dimethyl-[1,3]dioxolan-4-yl-methyl)-1H-pyrazol-3-yl]-amide] | 0.516 |
| COc1ccccc1OC1=CC(=O)N([C@@H](CC2CCCCC2)C(=O)Nc2ccn(C[C@H](O)CO)n2)C1 [Example 30, (S)-3-Cyclohexyl-N-[1-((S)-2,3-dihydroxy-propyl)-1H-pyrazol-3-yl]-2-[4-(2-methoxy-phenoxy)-2-oxo-2,5-dihydro-pyrrol-1-yl]-propionamide] | 0.031 |
| CC(C)C[C@@H](C(=O)Nc1ccn(C[C@@H](O)CO)n1)N1CC(Oc2ccc(F)cc2F)=CC1=O [Example 102, (S)-2-[4-(2,4-Difluoro-phenoxy)-2-oxo-2,5-dihydro-pyrrol-1-yl]-4-methyl-pentanoic acid [1-((R)-2,3-dihydroxy-propyl)-1H-pyrazol-3-yl]-amide] | 0.578 |
| C=CCOC(=O)Cc1nsc(NC(=O)[C@H](CC(C)C)N2CC(Oc3ccccc3Cl)=CC2=O)n1 [Example 111, (5-{(S)-2-[4-(2-Chloro-phenoxy)-2-oxo-2,5-dihydro-pyrrol-1-yl]-4-methyl-pentanoylamino}-[1,2,4]thiadiazol-3-yl)-acetic acid allyl ester] | 0.694 |
| CC(C)(O)Cn1ccc(NC(=O)[C@H](CC2CCCCC2)N2CC(Oc3cccc4c3OCCO4)=CC2=O)n1 [Example 33, (S)-3-Cyclohexyl-2-[4-(2,3-dihydro-benzo[1,4]dioxin-5-yloxy)-2-oxo-2,5-dihydro-pyrrol-1-yl]-N-[1-(2-hydroxy-2-methyl-propyl)-1H-pyrazol-3-yl]-propionamide] | 0.035 |
| CC(C)C[C@@H](C(=O)Nc1ccn(CC(N)=O)n1)N1CC(Oc2cccc(C3CC3)c2F)=CC1=O [Example 156, (S)-2-[4-(3-Cyclopropyl-2-fluoro-phenoxy)-2-oxo-2,5-dihydro-pyrrol-1-yl]-4-methyl-pentanoic acid (1-carbamoylmethyl-1H-pyrazol-3-yl)-amide] | 0.406 |
| COc1cccc(OC2=CC(=O)N([C@@H](CC3CCCC3)C(=O)Nc3ccn(CC(C)(C)O)n3)C2)c1Cl [Example 54, (S)-2-[4-(2-chloro-3-methoxy-phenoxy)-2-oxo-2,5-dihydro-pyrrol-1-yl]-3-cyclopentyl-N-[1-(2-hydroxy-2-methyl-propyl)-1H-pyrazol-3-yl]-propionamide] | 0.008 |
| CC(C)C[C@@H](C(=O)Nc1ccn(C[C@@H](O)CO)n1)N1CC(Oc2cc(F)ccc2F)=CC1=O [Example 101, (S)-2-[4-(2,5-Difluoro-phenoxy)-2-oxo-2,5-dihydro-pyrrol-1-yl]-4-methyl-pentanoic acid [1-((R)-2,3-dihydroxy-propyl)-1H-pyrazol-3-yl]-amide] | 0.33 |
| CCOc1ccccc1OC1=CC(=O)N([C@@H](CC(C)C)C(=O)Nc2ccn(C[C@@H](O)CO)n2)C1.Cl [Example 84, (S)-2-[4-(2-Ethoxy-phenoxy)-2-oxo-2,5-dihydro-pyrrol-1-yl]-4-methyl-pentanoic acid [1-((R)-2,3-dihydroxy-propyl)-1H-pyrazol-3-yl]-amide Hydrochloride] | 1.312 |
| COC1=CC(=O)N([C@@H](CC2CCCC2)C(=O)Nc2ccn(CC(C)(C)OC)n2)C1 [Example 5, (S)-3-Cyclopentyl-N-[1-(2-methoxy-2-methyl-propyl)-1H-pyrazol-3-yl]-2-(4-methoxy-2-oxo-2,5-dihydro-pyrrol-1-yl)-propionamide] | 3.15 |
| CCOC(=O)Cn1ccc(NC(=O)[C@H](CC(C)C)N2CC(Oc3cccc(C4CC4)c3F)=CC2=O)n1 [Example 148, (3-{(S)-2-[4-(3-Cyclopropyl-2-fluoro-phenoxy)-2-oxo-2,5-dihydro-pyrrol-1-yl]-4-methyl-pentanoylamino}-pyrazol-1-yl)-acetic acid ethyl ester] | 0.21 |
| COc1cccc(OC2=CC(=O)N([C@H](CC3CCOCC3)C(=O)Nc3ccn(CC(C)(C)O)n3)C2)c1Cl [Example 52, (R)-2-[4-(2-Chloro-3-methoxy-phenoxy)-2-oxo-2,5-dihydro-pyrrol-1-yl]-N-[1-(2-hydroxy-2-methyl-propyl)-1H-pyrazol-3-yl]-3-(tetrahydro-pyran-4-yl)-propionamide] | 1.027 |
| CC(C)(O)Cn1ccc(NC(=O)C(CC2CCOCC2)N2CC(Oc3c(F)cccc3F)=CC2=O)n1 (centres unmarked) [Example 42, 2-[4-(2,6-Difluoro-phenoxy)-2-oxo-2,5-dihydro-pyrrol-1-yl]-N-[1-(2-hydroxy-2-methyl-propyl)-1H-pyrazol-3-yl]-3-(tetrahydro-pyran-4-yl)-propionamide] | 0.148 |
